These results are taken from patent publication US11260054B2, “Methods of treatment of cancer” (Pano Therapeutics, Inc., priority 2018, dated 2022).

SMILES strings stand for the structures. Where two headings read alike, the source gives them in different places.

In one data set the test system is HTC116 Cell Line. Nature of the data set: Colorectal cancer cell survival assay (CellTiter-Glo). The class given is cell-based. The note with it: 72 hrs incubation. The protocol: HTC116 cells were grown overnight at 37° C., 5% CO2. Cells were then incubated for 72 hrs in humidified incubator at 37° C. and 5% CO2 with 5 m, AA6, metformin, S1QEL 1.1, or cisplatin at concentrations ranging from 100 μM-50 nM. Each condition was done in triplicate, and the structures of the compounds were not known to the experimenters. After the incubation, cells were lysed with CellTiter-Glo® Luminescent Cell Viability Assay reagent (Promega) and luminescence was read using an Envision plate reader.
The IC50s of 5 m, AA6, and cisplatin were similar with 5 m and AA6 having slightly lower IC50s. Metformin and S1Qel 1.1 had dramatically larger IC50s than 5 m, AA6, or cisplatin. Cell viability was plotted with GraphPad Prism version 5 and the IC50 was calculated for each compound. The graphical curves were fitted using a nonlinear regression model with a sigmoidal dose response.

In another data set the test system is PANC-1 Cell Line. The data set is described as follows: Pancreatic cancer cell survival assay, PANC-1 (CellTiter-Glo). The class given is cell-based. Particulars: 72 hrs incubation, read-out: Absolute IC50. The protocol: (§1) PANC-1 and MiaPaCa-2 were grown overnight at 37° C., 5% CO2 and 95% humidity. PANC-1 was grown in DMEM+10% FBS and MIA PaCa-2 was grown in DMEM+10% FBS+2.5% H. Cells from each cell line were then incubated for 72 hrs in humidified incubator at 37° C. and 5% CO2 with 5 m, AA6, metformin, or cisplatin at concentrations ranging from 100 μM-50 nM. Each condition was done in triplicate, and the structures of the compounds were not known to the experimenters. After the incubation, cells were lysed with CellTiter-Glo® Luminescent Cell Viability Assay reagent (Promega) and luminescence was read using an EnVision plate reader (PerkinElmer). Cell viability was plotted with GraphPad Prism version 5 and the IC50 was calculated for each compound with each cell line. The graphical curves were fitted using a nonlinear regression model with a sigmoidal dose response.
In general terms: In ATP-based viability assays light output follows the ATP content of the culture.

The next data set relates to MiaPaCa-2 Cell Line. The data set is described as follows: Pancreatic cancer cell survival assay, MiaPaCa-2 (CellTiter-Glo). The class given is cell-based. Particulars: 72 hrs incubation, read-out: Absolute IC50. The protocol:
as §1

A further data set relates to HCT116 cells. The data set is described as follows: Hypoxic cancer cell survival assay, normoxic vs hypoxic (CellTiter-Glo). The class given is cell-based. Particulars: for IC50: 72 hrs, read-out: Absolute IC50. The protocol:
HCT116 cells were cultured in an atmosphere of 37° C., 5% CO2, 95% humidity, and with either 1% O2 (hypoxic) or 20% O2 (normoxic). No antibiotics were used in the cell culturing. HeLa cells were grown in parallel and samples were taken after 48 h and 72 h to confirm Hypoxia-inducible factor-1α (HIF-1α) expression by western blot.
HCT116 cells were then seeded on 6-well plates and incubated at 37° C., 5% CO2, and 95% humidity overnight. Cells previously cultured under hypoxic conditions were again incubated with 1% O2, and cells previously cultured under normoxic conditions were again incubated with 20% O2.
as §1, with “Hypoxic” for “PANC-1”, “normoxic cells” for “MiaPaCa-2 were grown overnight at 37° C., 5% CO2 and 95% humidity. PANC-1 was grown in DMEM+10% FBS and MIA PaCa-2 was grown in DMEM+10% FBS+2.5% H. Cells from each cell line”, “C., 5% CO2, 95% humidity,” for “C.”, “either 1% O2 (hypoxic) or 20% O2 (normoxic)” for “5% CO2”, “1 mM-50” for “100 μM-50”

Data set [1] can be described thus: Pharmacokinetic parameters in mice, IV and oral. The class given is in vivo, BALB/c mice. The note with it: for Vd: BALB/c, iv. The protocol:
Fed BALB/c mice were administered either 2 mg/kg of 5 m intravenously via the tail vein or 10 mg/kg of 5 m orally. For both conditions, 5 m was dissolved in 10% DMSO/50% PEG400/40% Water. Blood was sampled at various timepoints after the compound was administered and was analyzed using AB Sciex API 4000 LC/MS/MS in positive ion mode.

The mark [2] stands for this setting: Homo sapiens, HCT-116, 72 h, HCT116, hypoxic conditions (1% O2).
Where [3] appears, read: HCT116, hypoxic conditions (1% O2).
Setting [4] is: mouse, blood, IV, 2 mg/kg, fed BALB/c mice, mean N = 3.
Where [5] appears, read: mouse, blood, oral, 10 mg/kg, fed BALB/c mice, mean N = 3.

On to `CN(C)C(=N)N=C(N)N` [Metformin, reference compound], for which the IC50 in the data set with HTC116 Cell Line was more than 100 µM; in the data set with PANC-1 Cell Line (Homo sapiens, PANC-1, 72 h), more than 5000 µM; in the data set on MiaPaCa-2 Cell Line (Homo sapiens, MIA PaCa-2, 72 h), more than 5000 µM; with HCT116 cells (setting [2]) it was more than 1000 µM; in the data set on HCT116 cells (Homo sapiens, HCT-116, 72 h, HCT116, normoxic conditions (20% O2)) it was 71.8 µM. Further, the dose response curve entry with HCT116 cells (HCT116, hypoxic conditions, concentrations up to 1 mM) is reported as “failed to result in a recognizable dose response curve”.
Consider `CN(CCCCCCc1ccccc1)CCCCNC(=O)c1nc(Cl)c(NCc2ccc(Cl)cc2)nc1N` [AA6, 3-amino-6-chloro-5-((4-chlorobenzyl)amino)-N-(4-(methyl(6-phenylhexyl)amino)butyl)pyrazine-2-carboxamide], for which the IC50 with HTC116 Cell Line was 3.6 µM; in the data set with PANC-1 Cell Line, 5.9 µM; in the data set with PANC-1 Cell Line (Homo sapiens, PANC-1, 72 h) it was less than 6 µM; in the data set with MiaPaCa-2 Cell Line, 5.1 µM; with MiaPaCa-2 Cell Line (Homo sapiens, MIA PaCa-2, 72 h) it was less than 6 µM; with HCT116 cells (setting [3]) it was 5 µM. Also, the IC50 in the data set on HCT116 cells (setting [2]) was less than 6 µM.
As to `N/C(=N\C(=O)c1nc(Cl)c(NCc2ccc(I)cc2)nc1N)NCCCCc1ccccc1` [5m, (E)-3-amino-N-(amino((4-phenylbutyl)amino)methylene)-6-chloro-5-((4-iodobenzyl)amino)pyrazine-2-carboxamide], the IC50 in the data set on HTC116 Cell Line is 3.2 µM; in the data set on PANC-1 Cell Line, 4.7 µM; in the data set on PANC-1 Cell Line (Homo sapiens, PANC-1, 72 h), less than 6 µM; in the data set on MiaPaCa-2 Cell Line, 4.3 µM; in the data set on MiaPaCa-2 Cell Line (Homo sapiens, MIA PaCa-2, 72 h), less than 6 µM; in the data set with HCT116 cells (setting [3]), 1.7 µM. The IC50 in the data set with HCT116 cells (HCT116, normoxic conditions (20% O2)) is 0.7 µM. In addition, the “apparent abnormal symptoms or toxicity during the assay” value in data set [1] (2 mg/kg intravenously or 10 mg/kg orally, BALB/c mice) is listed as “did not result in any apparent abnormal symptoms or toxicity”. Also, the Vd amounted to 9.41 L/kg in data set [1] (mouse, blood, 2 mg/kg, IV, 2 mg/kg, fed BALB/c mice, mean N = 3, read-out: Vss) and 17.5 L/kg in data set [1] (mouse, blood, 2 mg/kg, IV, 2 mg/kg, fed BALB/c mice, mean N = 3, read-out: Vz). Also, in data set [1] (IV, 2 mg/kg, fed BALB/c mice, mean N = 3), the “AUC Extr” value is listed as 2.47%. Moreover, the half-life in data set [1] (mouse, blood, IV, 2 mg/kg via tail vein, fed BALB/c mice, mean N = 3) was 5.3 h; in data set [1] (setting [5]), 3.62 h. The figures for the AUC(0-inf) in data set [1] (setting [4]) and in data set [1] (setting [5]) were 871 ng·h/mL and 41.5 ng·h/mL, respectively. Further, the AUC(0-t) in data set [1] (setting [4]) amounted to 849 ng·h/mL; in data set [1] (setting [5]), 32.8 ng·h/mL. In addition, the C0 in data set [1] (setting [4]) amounted to 3870 ng/mL. Also, the MRT inf in data set [1] (setting [4]) was 4.1 h. The molecule also gave a clearance in data set [1] (setting [4]) of 38.4 mL/min/kg. The molecule also showed a CL/F in data set [1] (setting [5]) of 4030 mL/min/kg. Further, in data set [1] (setting [5]), the highest level (Cmax) was 18.3 ng/mL. In data set [1] (mouse, blood, oral, 10 mg/kg, fed BALB/c mice, mean N = 3, read-out: Vz/F), the Vd/F is 1270 L/kg. For the same molecule, in data set [1] (oral 10 mg/kg vs IV 2 mg/kg, fed BALB/c mice, mean N = 3), the F came out at 0.773%.
On to `N.N.[Cl][Pt][Cl]` [Cisplatin, reference compound], for which the IC50 in the data set on HTC116 Cell Line came out at 4.3 µM; with PANC-1 Cell Line (listed as cisplatin), 12.2 µM; in the data set on PANC-1 Cell Line, 14.2 µM; with MiaPaCa-2 Cell Line (listed as cisplatin) it was 14.2 µM; in the data set on MiaPaCa-2 Cell Line, 12.2 µM.

Usually IC50 stands for the concentration at which inhibition is half-maximal. As usually defined, the half-life is the time needed for the level to fall by half in the phase considered. A lower half-life goes with rapid decline. What is called AUC(0-inf) is total exposure, with the tail of the curve extrapolated. A higher AUC(0-inf) goes with high exposure. As a reminder, the AUC(0-t) is exposure summed from dosing to a finite time, without extrapolation to infinity. Low readings indicate less exposure, high ones more exposure. Broadly, the MRT inf is a mean duration of stay, worked out from the concentration-time curve. The CL/F is clearance divided by bioavailability, as obtained after extravascular dosing. As a reminder, the Cmax is the maximum level reached in the sampled fluid or tissue.
